Measured values reported in patent US9199943B2, “2-(poly-substituted aryl)-6-amino-5-halo-4-pyrimidinecarboxylic acids and their use as herbicides” (Dow AgroSciences, LLC., priority 2006, dated 2015).

What was measured:
Type in all cases: in vivo
[1] = system: TRZAS = wheat (Triticum aestivum); test: Postemergence herbicidal activity in cereal crops, wheat; conditions: post-emergence, 480 h, post-emergent, wheat (crop), after 20-22 days; for pest or weed control at 35 g/ha: 35 g ai/ha; for pest or weed control at 17.5 g/ha: 17.5 g ai/ha; for pest or weed control at 70 g/ha: 70 g ai/ha
Experimental: (§1) Seeds of the desired test plant species were planted in Sun Gro MetroMix® 306 planting mixture, which typically has a pH of 6.0 to 6.8 and an organic matter content of about 30 percent, in plastic pots with a surface area of 103.2 square centimeters. When required to ensure good germination and healthy plants, a fungicide treatment and/or other chemical or physical treatment was applied. The plants were grown for 7-36 days in a greenhouse with an approximate 14 hour photoperiod which was maintained at about 18° C. during the day and 17° C. during the night. Nutrients and water were added on a regular basis and supplemental lighting was provided with overhead metal halide 1000-Watt lamps as necessary. The plants were employed for testing when they reached the second or third true leaf stage.
(§2) A weighed amount, determined by the highest rate to be tested, of each test compound was placed in a 25 mL glass vial and was dissolved in 8 mL of a 97:3 v/v mixture of acetone and DMSO to obtain concentrated stock solutions. […] The concentrated stock solutions obtained were diluted with 16 mL of an aqueous mixture containing acetone, water, isopropyl alcohol, DMSO, Agri-dex crop oil concentrate, and Triton X-77 surfactant in a 64.7:26.0:6.7:2.0:0.7:0.01 v/v ratio to obtain spray solutions containing the highest application rates. Additional application rates were obtained by serial dilution of 12 mL of the high rate solution into a solution containing 4 mL of 97:3 v/v mixture of acetone and DMSO and 8 mL of an aqueous mixture containing acetone, water, isopropyl alcohol, DMSO, Agri-dex crop oil concentrate, and Triton X-77 surfactant in a 48.5:39.0:10.0:1.5:1.0:0.02 v/v ratio to obtain ½×, ¼×, ⅛× and 1/16× rates of the high rate. Compound requirements are based upon a 12 mL application volume at a rate of 187 L/ha. Formulated compounds were applied to the plant material with an overhead Mandel track sprayer equipped with a 8002E nozzles calibrated to deliver 187 L/ha over an application area of 0.503 square meters at a spray height of 18 inches (43 cm) above average plant canopy height. Control plants were sprayed in the same manner with the blank.
(§3) The treated plants and control plants were placed in a greenhouse as described above and watered by sub-irrigation to prevent wash-off of the test compounds. After 20-22 days, the condition of the test plants as compared with that of the untreated plants was determined visually and scored on a scale of 0 to 100 percent where 0 corresponds to no injury and 100 corresponds to complete kill.

GALAP = Galium aparine = test: Postemergence herbicidal activity in cereal crops, Galium aparine; conditions: post-emergence, 480 h, post-emergent, after 20-22 days; for pest or weed control at 35 g/ha: 35 g ai/ha; for pest or weed control at 17.5 g/ha: 17.5 g ai/ha; for pest or weed control at 70 g/ha: 70 g ai/ha
Experimental: as §1, §2, §3

PAPRH = Papaver rhoeas = test: Postemergence herbicidal activity in cereal crops, Papaver rhoeas; conditions: post-emergence, 480 h, post-emergent, after 20-22 days; for pest or weed control at 35 g/ha: 35 g ai/ha; for pest or weed control at 17.5 g/ha: 17.5 g ai/ha; for pest or weed control at 70 g/ha: 70 g ai/ha
Experimental: as §1, §2, §3

[2] = system: ORYSA = rice (Orysa sativa var. Japonica); test: Herbicidal activity in transplanted paddy rice, rice; conditions: Oryza sativa, 480 h, water-injected paddy, rice (crop), after 20-22 days; for pest or weed control at 17.5 g/ha: 17.5 g ai/ha; for pest or weed control at 70 g/ha: 70 g ai/ha; for pest or weed control at 140 g/ha: 140 g ai/ha; for pest or weed control at 35 g/ha: 35 g ai/ha
Experimental: (§4) Weed seeds or nutlets of the desired test plant species were planted in puddled soil (mud) prepared by mixing a non-sterilized mineral soil (28 percent silt, 18 percent clay, and 54 percent sand, with a pH of about 7.3 to 7.8 and an organic matter content of about 1.0 percent) and water at a ratio of 100 kg of soil to 19 L of water. The prepared mud was dispensed in 250 mL aliquots into 480 mL non-perforated plastic pots with a surface area of 91.6 square centimeters leaving a headspace of 3 centimeters in each pot. Rice seeds were planted in Sun Gro MetroMix® 306 planting mixture, which typically has a pH of 6.0 to 6.8 and an organic matter content of about 30 percent, in plastic plug trays. Seedlings at the second or third leaf stage of growth were transplanted into 650 mL of mud contained in 960 mL non-perforated plastic pots with a surface area of 91.6 square centimeters 4 days prior to herbicide application. The paddy was created by filling the 3 centimeter headspace of the pots with water. When required to ensure good germination and healthy plants, a fungicide treatment and/or other chemical or physical treatment was applied. The plants were grown for 4-14 days in a greenhouse with an approximate 14 hour photoperiod which was maintained at about 29° C. during the day and 26° C. during the night. Nutrients were added as Osmocote (17:6:10, N:P:K+minor nutrients) at 2 g (grams) per cup. Water was added on a regular basis to maintain the paddy flood, and supplemental lighting was provided with overhead metal halide 1000-Watt lamps as necessary. The plants were employed for testing when they reached the second or third true leaf stage. A weighed amount, determined by the highest rate to be tested, of each test compound was placed in a 120 mL glass vial and was dissolved in 20 mL of acetone to obtain concentrated stock solutions. […] The concentrated stock solutions obtained were diluted with 20 mL of an aqueous mixture containing 0.01% Tween 20 (v/v). Application rates of ½×, ¼×, ⅛× and 1/16× of the high rate were obtained by injecting an appropriate amount of the stock solution into the aqueous layer of the paddy. Control plants were treated in the same manner with the solvent blank. The treated plants and control plants were placed in a greenhouse as described above and water was added as needed to maintain a paddy flood. After 20-22 days, the condition of the test plants as compared with that of the untreated plants was determined visually and scored on a scale of 0 to 100 percent where 0 corresponds to no injury and 100 corresponds to complete kill.

[3] = system: SCPJU = Scirpus juncoides; test: Herbicidal activity in transplanted paddy rice, Scirpus juncoides; conditions: Schoenoplectiella juncoides, 480 h, water-injected paddy, after 20-22 days; for pest or weed control at 17.5 g/ha: 17.5 g ai/ha; for pest or weed control at 70 g/ha: 70 g ai/ha; for pest or weed control at 140 g/ha: 140 g ai/ha; for pest or weed control at 35 g/ha: 35 g ai/ha
Experimental: as §4

[4] = system: CYPDI = Cyperus difformis; test: Herbicidal activity in transplanted paddy rice, Cyperus difformis; conditions: 480 h, water-injected paddy, after 20-22 days; for pest or weed control at 17.5 g/ha: 17.5 g ai/ha; for pest or weed control at 70 g/ha: 70 g ai/ha; for pest or weed control at 140 g/ha: 140 g ai/ha; for pest or weed control at 35 g/ha: 35 g ai/ha
Experimental: as §4

CCOc1c(Cl)ccc(-c2nc(N)c(Cl)c(C(=O)OC)n2)c1F [Compound 1, 6-amino-5-chloro-2-(4-chloro-3-ethoxy-2-fluorophenyl)-pyrimidine-4-carboxylic acid methyl ester]
pest or weed control at 35 g/ha [1]: 0% | pest or weed control at 35 g/ha (GALAP = Galium aparine): 99% | pest or weed control at 35 g/ha (PAPRH = Papaver rhoeas): 100% | pest or weed control at 17.5 g/ha [2]: 5% | pest or weed control at 17.5 g/ha [3]: 50% | pest or weed control at 17.5 g/ha [4]: 95%

COC(=O)c1nc(-c2c(F)cc(Cl)c(OC)c2F)nc(N)c1Cl [Compound 2, 6-amino-5-chloro-2-(4-chloro-2,6-difluoro-3-methoxy-phenyl)pyrimidine-4-carboxylic acid methyl ester]
pest or weed control at 35 g/ha [1]: 0% | pest or weed control at 35 g/ha (GALAP = Galium aparine): 95% | pest or weed control at 35 g/ha (PAPRH = Papaver rhoeas): 100% | pest or weed control at 70 g/ha [2]: 0% | pest or weed control at 70 g/ha [3]: 20% | pest or weed control at 70 g/ha [4]: 75%

COC(=O)c1nc(-c2ccc(Cl)c(OC)c2F)nc(N)c1Cl [Compound 3, 6-amino-5-chloro-2-(4-chloro-2-fluoro-3-methoxyphenyl)-pyrimidine-4-carboxylic acid methyl ester]
pest or weed control at 17.5 g/ha [1]: 0% | pest or weed control at 17.5 g/ha (GALAP = Galium aparine): 95% | pest or weed control at 17.5 g/ha (PAPRH = Papaver rhoeas): 100% | pest or weed control at 17.5 g/ha [2]: 0% | pest or weed control at 17.5 g/ha [3]: 80% | pest or weed control at 17.5 g/ha [4]: 99%

COC(=O)c1nc(-c2ccc(Cl)c(OC)c2Cl)nc(N)c1Cl [Compound 6, 6-Amino-5-chloro-2-(2,4-dichloro-3-methoxyphenyl)pyrimidine-4-carboxylic acid methyl ester]
pest or weed control at 70 g/ha [1]: 10% | pest or weed control at 70 g/ha (GALAP = Galium aparine): 85% | pest or weed control at 70 g/ha (PAPRH = Papaver rhoeas): 99% | pest or weed control at 17.5 g/ha [2]: 0% | pest or weed control at 17.5 g/ha [4]: 90%

COC(=O)c1nc(-c2ccc(Cl)c(C(F)F)c2F)nc(N)c1Cl [Compound 7, 6-Amino-5-chloro-2-(4-chloro-3-difluoromethyl-2-fluorophenyl)pyrimidine-4-carboxylic acid methyl ester]
pest or weed control at 17.5 g/ha [1]: 15% | pest or weed control at 17.5 g/ha (GALAP = Galium aparine): 60% | pest or weed control at 17.5 g/ha (PAPRH = Papaver rhoeas): 95% | pest or weed control at 140 g/ha [2]: 0% | pest or weed control at 140 g/ha [3]: 90% | pest or weed control at 140 g/ha [4]: 100%

COC(=O)c1nc(-c2ccc(Cl)c(N(C)C)c2F)nc(N)c1Cl [Compound 8, 6-Amino-5-chloro-2-(4-chloro-3-dimethylamino-2-fluorophenyl)pyrimidine-4-carboxylic acid methyl ester]
pest or weed control at 35 g/ha [1]: 15% | pest or weed control at 35 g/ha (GALAP = Galium aparine): 70% | pest or weed control at 35 g/ha (PAPRH = Papaver rhoeas): 100% | pest or weed control at 35 g/ha [2]: 0% | pest or weed control at 35 g/ha [3]: 10% | pest or weed control at 35 g/ha [4]: 95%

COC(=O)c1nc(-c2ccc3c(c2F)OCO3)nc(N)c1Cl [Compound 9, 6-Amino-5-chloro-2-(4-fluorobenzo[1,3]dioxol-5-yl)pyrimidine-4-carboxylic acid methyl ester]
pest or weed control at 70 g/ha [1]: 15% | pest or weed control at 70 g/ha (GALAP = Galium aparine): 90% | pest or weed control at 70 g/ha (PAPRH = Papaver rhoeas): 40% | pest or weed control at 35 g/ha [2]: 0% | pest or weed control at 35 g/ha [3]: 70% | pest or weed control at 35 g/ha [4]: 100%

COC(=O)c1nc(-c2ccc(Cl)c(OCC(F)F)c2F)nc(N)c1Cl [Compound 10, 6-Amino-5-chloro-2-[4-chloro-3-(2,2-difluoroethoxy)-2-fluorophenyl]-pyrimidine-4-carboxylic acid methyl ester]
pest or weed control at 70 g/ha [1]: 5% | pest or weed control at 70 g/ha (GALAP = Galium aparine): 65% | pest or weed control at 70 g/ha (PAPRH = Papaver rhoeas): 95% | pest or weed control at 140 g/ha [2]: 0% | pest or weed control at 140 g/ha [3]: 40% | pest or weed control at 140 g/ha [4]: 95%

COC(=O)c1nc(-c2ccc(Cl)c(OC)c2F)nc(N)c1Br [Compound 13, 6-amino-5-bromo-2-(4-chloro-2-fluoro-3-methoxyphenyl)-pyrimidine-4-carboxylic acid methyl ester]
pest or weed control at 17.5 g/ha [1]: 0% | pest or weed control at 17.5 g/ha (GALAP = Galium aparine): 90% | pest or weed control at 17.5 g/ha (PAPRH = Papaver rhoeas): 100% | pest or weed control at 70 g/ha [2]: 0% | pest or weed control at 70 g/ha [3]: 60% | pest or weed control at 70 g/ha [4]: 85%
